Experimental data: patent publication US6670446B1, “N1 modified glycopeptides” (Eli Lilly and Company, priority 1998, dated 2003)

Experiments:
Assay type in all cases: cell-based
[1] = test system: Resistant Enterococcus faecium and faecalis; test: MIC, standard broth micro-dilution assay, Resistant; details: geometric mean of 4-6 isolates
Description: (§1) The antibacterial efficacy of the present compounds is illustrated by Table III. The minimal inhibitory concentrations (MICs) were determined using a standard broth micro-dilution assay.

[2] = test system: Sensitive Enterococcus faecium and faecalis; test: MIC, standard broth micro-dilution assay, Sensitive; details: geometric mean of 4-6 isolates
Description: as §1

[3] = test system: Staphylococcus aureus 446; test: MIC, standard broth micro-dilution assay, SA 446
Description: as §1

[4] = test system: Staphylococcus aureus 489; test: MIC, standard broth micro-dilution assay, SA 489
Description: as §1

[5] = test system: Staphylococcus aureus 447; test: MIC, standard broth micro-dilution assay, SA 447
Description: as §1

[6] = test system: Staphylococcus aureus X400; test: MIC, standard broth micro-dilution assay, SA X400
Description: as §1

[7] = test system: Staphylococcus aureus X778; test: MIC, standard broth micro-dilution assay, SA X778
Description: as §1

[8] = test system: Staphylococcus aureus 491; test: MIC, standard broth micro-dilution assay, SA 491
Description: as §1

[9] = test system: Staphylococcus aureus S13E
Description: as §1

[10] = test system: Staphylococcus aureus SA1199; test: MIC, standard broth micro-dilution assay, SA 1199
Description: as §1

[11] = test system: Staphylococcus aureus SA1199A; test: MIC, standard broth micro-dilution assay, SA 1199A
Description: as §1

[12] = test system: Staphylococcus haemolyticus 105; test: MIC, standard broth micro-dilution assay, SH 105
Description: as §1

[13] = test system: Staphylococcus haemolyticus 415; test: MIC, standard broth micro-dilution assay, SH 415
Description: as §1

[14] = test system: Staphylococcus epidermidis 270; test: MIC, standard broth micro-dilution assay, SE 270
Description: as §1

Enterococcus faecium 180 = test: MIC, standard broth micro-dilution assay, EF 180
Description: as §1

[15] = test system: Enterococcus faecium 180-1; test: MIC, standard broth micro-dilution assay, EF 180-1
Description: as §1

[16] = test system: Enterococcus faecalis 2041; test: MIC, standard broth micro-dilution assay, EF 2041
Description: as §1

[17] = test system: Enterococcus faecalis 276; test: MIC, standard broth micro-dilution assay, EF 276
Description: as §1

[18] = test system: Enterococcus gallinarum 245; test: MIC, standard broth micro-dilution assay, EG 245
Description: as §1

[19] = test system: Haemophilus influenzae RD; test: MIC, standard broth micro-dilution assay, HFRD
Description: as §1

Escherichia coli EC14 = test: MIC, standard broth micro-dilution assay, EC 14
Description: as §1

SMILES | minimal inhibitory concentration (MIC), Resistant [1] | minimal inhibitory concentration (MIC), Sensitive [2] | minimal inhibitory concentration (MIC), SA 446 [3] | minimal inhibitory concentration (MIC), SA 489 [4] | minimal inhibitory concentration (MIC), SA 447 [5] | minimal inhibitory concentration (MIC), SA X400 [6] | minimal inhibitory concentration (MIC), SA X778 [7] | minimal inhibitory concentration (MIC), SA 491 [8] | minimal inhibitory concentration (MIC), SA S13E [9] | minimal inhibitory concentration (MIC), SA 1199 [10] | minimal inhibitory concentration (MIC), SA 1199A [11] | minimal inhibitory concentration (MIC), SH 105 [12] | minimal inhibitory concentration (MIC), SH 415 [13] | minimal inhibitory concentration (MIC), SE 270 [14] | minimal inhibitory concentration (MIC), EF 180 (Enterococcus faecium 180) | minimal inhibitory concentration (MIC), EF 180-1 [15] | minimal inhibitory concentration (MIC), EF 2041 [16] | minimal inhibitory concentration (MIC), EF 276 [17] | minimal inhibitory concentration (MIC), EG 245 [18] | minimal inhibitory concentration (MIC), HFRD [19] | further results
CC(C)CC(N)C(=O)NC1C(=O)NC(CC(N)=O)C(=O)NC2C(=O)NC3C(=O)NC(C(=O)NC(C(=O)O)c4cc(O)cc(O)c4-c4cc3ccc4O)C(OC3CC(C)(N)C(O)C(C)O3)c3ccc(c(Cl)c3)Oc3cc2cc(c3OC2OC(CO)C(O)C(O)C2O)Oc2ccc(cc2Cl)C1O [Example 37, N^1-D-leucine derivative of desepivancosaminyl-desleucylA82846B] | >32 | 0.87 | 0.5 | 0.25 | 1 | 0.25 | 0.25 | 0.5 | 0.25 | 0.5 | 0.125 | 0.25 | 4 | 0.5 | >64 | 0.25 | 0.5 | 0.25 | 0.5 | 64 | minimal inhibitory concentration (MIC), EC 14 (Escherichia coli EC14): >64
CCCCCCNC(CC(C)C)C(=O)NC1C(=O)NC(CC(N)=O)C(=O)NC2C(=O)NC3C(=O)NC(C(=O)NC(C(=O)O)c4cc(O)cc(O)c4-c4cc3ccc4O)C(OC3CC(C)(N)C(O)C(C)O3)c3ccc(c(Cl)c3)Oc3cc2cc(c3OC2OC(CO)C(O)C(O)C2OC2CC(C)(NCCCCCC)C(O)C(C)O2)Oc2ccc(cc2Cl)C1O [Example 38, N^1-(N-n-hexyl-D-leucine) derivative of N^DISACC-n-hexyl desleucylA82846B] | 6.7 | 0.19 | 1 | 0.25 | 1 | 1 | 0.5 | ≦.06 | 0.5 | 1 | ≦.06 | 1 | 1 | 1 | 2 | no growth | ≦.06 | 0.25 | 0.5 | no | minimal inhibitory concentration (MIC), EC 14 (Escherichia coli EC14): >64
CCCCCCNC(CC(C)C)C(=O)NC1C(=O)NC(CC(N)=O)C(=O)NC2C(=O)NC3C(=O)NC(C(=O)NC(C(=O)O)c4cc(O)cc(O)c4-c4cc3ccc4O)C(OC3CC(C)(N)C(O)C(C)O3)c3ccc(c(Cl)c3)Oc3cc2cc(c3OC2OC(CO)C(O)C(O)C2OC2CC(C)(N)C(O)C(C)O2)Oc2ccc(cc2Cl)C1O [Example 39, N^1-(N-n-hexyl-D-leucine) derivative of desleucylA82846B] | 45 | 0.38 | ≦.06 | ≦.06 | 0.5 | ≦.06 | ≦.06 | ≦.06 | 0.125 | 0.125 | ≦.06 | 0.5 | 2 | 0.25 | 2 | no growth | ≦.06 | ≦.06 | 0.5 | no | minimal inhibitory concentration (MIC), EC 14 (Escherichia coli EC14): >64
CC1OC(OC2c3ccc(c(Cl)c3)Oc3cc4cc(c3OC3OC(CO)C(O)C(O)C3OC3CC(C)(N)C(O)C(C)O3)Oc3ccc(cc3Cl)C(O)C(NC(=O)C(Cc3ccccc3)N(C)C(=O)OC(C)(C)C)C(=O)NC(CC(N)=O)C(=O)NC4C(=O)NC3C(=O)NC2C(=O)NC(C(=O)O)c2cc(O)cc(O)c2-c2cc3ccc2O)CC(C)(N)C1O [Example 40, N^1-(N-BOC-N-methyl-D-phenylalanine) derivative of desleucylA82846B] | >128 | 9.2 | 4 | 4 | 8 | 4 | 4 | 2 | 4 | 4 | 2 | 4 | 64 | 4 | >64 | 4 | 2 | 1 | 16 | >64 | minimal inhibitory concentration (MIC), EC 14 (Escherichia coli EC14): >64
CC(C)C(C(=O)NC1C(=O)NC(CC(N)=O)C(=O)NC2C(=O)NC3C(=O)NC(C(=O)NC(C(=O)O)c4cc(O)cc(O)c4-c4cc3ccc4O)C(OC3CC(C)(N)C(O)C(C)O3)c3ccc(c(Cl)c3)Oc3cc2cc(c3OC2OC(CO)C(O)C(O)C2OC2CC(C)(N)C(O)C(C)O2)Oc2ccc(cc2Cl)C1O)N(C)C(=O)OC(C)(C)C [Example 41, N^1-(N-BOC-N-methyl-D-valine) derivative of desleucylA82846B] | >128 | 84 | 32 | 16 | 32 | 16 | 8 | 4 | 16 | 16 | 8 | 16 | 64 | 8 | >64 | 4 | 8 | 8 | >64 | no | minimal inhibitory concentration (MIC), EC 14 (Escherichia coli EC14): >64
